This note sets out measurements from patent US5051519A, “Novel antiviral and antitumor terpene hydroquinones and methods of use” (Harbor Branch Oceanographic Institution, Inc., priority 1990, dated 1991).

In assay [1] the test system is P388 murine leukemia cells. The assay can be described thus: Antiproliferative effect against murine P388 leukemia cells, MTT. Format: cell-based. The note with it: Mus musculus, 48 hour exposure. The method, then: The crude ethanolic extract and pure compound was tested for toxicity against murine P388 leukemia cells. P388 cells obtained from J. Mayo, National Cancer Institute, Bethesda, Md., were maintained in Roswell Park Memorial Institute medium 1640 (RPMI-1640) supplemented with 10% horse serum. All cell lines were cultured in plastic tissue culture flasks and kept in an incubator at 37° C. in humidified air containing 5% CO2. Antibiotic-free stock cultures of P388 cells were subcultured to 10^5 cells/ml by dilution in fresh growth medium at 2-3 day intervals. The mean generation time of primary cultures was 14-17 hours.
To assess the antiproliferative effects of agents against P388 cells, 200 μl cultures (96-well tissue culture plates, Nunc, Denmark) were established at 1×10^6 cells/ml in drug-free medium or medium containing the crude extract at a final dilution of 1:500 of compound 1 or 2 at various concentrations. Solvent for all dilutions was methanol, which was removed from plates under vacuum. All experimental cultures were initiated in medium containing Gentamicin sulfate ([…]; Schering Corporation, Kenilworth, N.J.). After 48 hour exposures, P388 cells were enumerated using 3-[4,5-dimethylthiazol-2-yl]-2,5-diphenyltetrazolium bromide (MTT) as described below (Alley, M. C. et al. [1988] Cancer Res. 48:589).
To quantitate the effects on cell proliferation, 75 μl of warm growth medium containing 5 mg/ml MTT was added to each well and cultures were returned to the incubator for 90 minutes. To spectrophotometrically quantitate formation of reduced formazan, plates were centrifuged (900 xg, 5 minutes), culture fluids removed by aspiration, and 200 μl of acidified isopropanol (2 ml concentrated HCl/liter isopropanol) added per well. The absorbance of the resulting solutions were measured at 570 nm with a plate reader (MR700 Microplate Reader, Dynatech Laboratories, Chantilly, Va.). […] A linear relationship between P388 cell number and formazan production was found over the range of cell densities observed in these experiments.

The subject of a further assay is MDCK cells. The assay can be described thus: Growth inhibition (cytotoxicity) of MDCK cells in the PR-8 antiviral assay, neutral red. Format: cell-based, canine (Canis familiaris). The note with it: Canis lupus familiaris, 50% growth inhibition.
In assay [2] the test system is influenza virus type A strain PR8. The assay can be described thus: Antiviral assay: cytopathic effect (CPE) reduction, influenza virus type A strain PR8 in MDCK cells, neutral red dye uptake. Format: cell-based, Influenza A strain A/PR/8/34 (HINI).
The mark [3] stands for this setting: molar restatement of μg per 200 μl value.

In brackets after ≈: the same amount, converted by molar mass.

What is called IC50 is the point on the concentration scale where inhibition reaches its midpoint. Read a low IC50 as greater potency. For `COc1ccc(OC(C)=O)c2c1CC1(C)C(C)CCC3C(C)(C)CCCC31O2` (stereo not shown) [Compound 2], the IC50 in assay [1] is 23.8 µg/mL (≈ 61.6 µM); with MDCK cells (setting [3]), 15 µM; in the assay on MDCK cells (72 h, read on day 3), 5 µg/mL. Also, the “in vitro therapeutic index (TI)” value in assay [2] (dog, mdck) amounted to 100.
For `C[C@H]1CC[C@H]2C(C)(C)CCC[C@]23Oc2ccc(O)cc2C[C@]13C` [aureol, reference compound], the IC50 in assay [1] is 9 µg/mL (≈ 28.6 µM); with MDCK cells (setting [3]), 11.6 µM; in the assay on MDCK cells (72 h, read on day 3) it was 3.65 µg/mL. For the same compound, the “activity against influenza virus type A strain PR-8 (in words)” value in assay [2] is reported as “strong antiviral activity”. Moreover, the “in vitro therapeutic index (TI)” value in assay [2] (ratio of IC50/EC50) was determined as 116.
`COc1ccc(O)c2c1CC1(C)C(C)CCC3C(C)(C)CCCC31O2` (stereo not shown) [Compound 1]: the IC50 in assay [1] was 13 µg/mL (≈ 37.7 µM); in the assay with MDCK cells (setting [3]), 19 µM; with MDCK cells (72 h, read on day 3), 6.5 µg/mL. Also, the “in vitro therapeutic index (TI)” value in assay [2] (dog, mdck) was determined as 9.
